PubChem BioAssay (NCI)
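96-well plates; 48 h exposure; 5 concentrations. Endpoints by linear interpolation between flanking doses. Not reached: highest tested concentration assigned. The concentration for full growth arrest is given as TGI.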

What was measured:
Assay in all cases: DTP human tumour cell line panel, 48 h
ACHN renal = tested on: ACHN renal
CCRF-CEM leukemia = tested on: CCRF-CEM leukemia
COLO 205 colon = tested on: COLO 205 colon
DMS 114 small cell lung = tested on: DMS 114 small cell lung
HCT-116 colon = tested on: HCT-116 colon
HL-60(TB) leukemia = tested on: HL-60(TB) leukemia
HOP-62 NSCLC = tested on: HOP-62 NSCLC
HOP-92 NSCLC = tested on: HOP-92 NSCLC
HT29 colon = tested on: HT29 colon
K-562 leukemia = tested on: K-562 leukemia
KM12 colon = tested on: KM12 colon
KM20L2 colon = tested on: KM20L2 colon
LXFL 529 NSCLC = tested on: LXFL 529 NSCLC
M14 melanoma = tested on: M14 melanoma
M19-MEL melanoma = tested on: M19-MEL melanoma
MALME-3M melanoma = tested on: MALME-3M melanoma
NCI-H23 lung = tested on: NCI-H23 lung
NCI-H460 lung = tested on: NCI-H460 lung
NCI-H522 lung = tested on: NCI-H522 lung
OVCAR-3 ovarian = tested on: OVCAR-3 ovarian
OVCAR-4 ovarian = tested on: OVCAR-4 ovarian
OVCAR-5 ovarian = tested on: OVCAR-5 ovarian
RPMI-8226 leukemia = tested on: RPMI-8226 leukemia
SF-268 CNS = tested on: SF-268 CNS
SF-295 CNS = tested on: SF-295 CNS
SF-539 CNS = tested on: SF-539 CNS
SK-MEL-2 melanoma = tested on: SK-MEL-2 melanoma
SK-MEL-28 melanoma = tested on: SK-MEL-28 melanoma
SNB-75 CNS = tested on: SNB-75 CNS
SNB-78 CNS = tested on: SNB-78 CNS
SR leukemia = tested on: SR leukemia
U251 CNS = tested on: U251 CNS
UACC-257 melanoma = tested on: UACC-257 melanoma
UACC-62 melanoma = tested on: UACC-62 melanoma
UO-31 renal = tested on: UO-31 renal
786-0 renal = tested on: 786-0 renal
A498 renal = tested on: A498 renal
A549 NSCLC = tested on: A549 NSCLC
BT-549 breast = tested on: BT-549 breast
CAKI-1 renal = tested on: CAKI-1 renal
DU-145 prostate = tested on: DU-145 prostate
EKVX NSCLC = tested on: EKVX NSCLC
HCC-2998 colon = tested on: HCC-2998 colon
HCT-15 colon = tested on: HCT-15 colon
HS 578T breast = tested on: HS 578T breast
IGROV1 ovarian = tested on: IGROV1 ovarian
LOX IMVI melanoma = tested on: LOX IMVI melanoma
MCF7 breast = tested on: MCF7 breast
MDA-MB-231 breast = tested on: MDA-MB-231 breast
MDA-MB-435 = tested on: MDA-MB-435
MDA-N = tested on: MDA-N
MOLT-4 leukemia = tested on: MOLT-4 leukemia
NCI-H226 lung = tested on: NCI-H226 lung
NCI/ADR-RES ovarian = tested on: NCI/ADR-RES ovarian
OVCAR-8 ovarian = tested on: OVCAR-8 ovarian
PC-3 prostate = tested on: PC-3 prostate
RXF 393 renal = tested on: RXF 393 renal
SK-MEL-5 melanoma = tested on: SK-MEL-5 melanoma
SK-OV-3 ovarian = tested on: SK-OV-3 ovarian
SN12C renal = tested on: SN12C renal
SNB-19 CNS = tested on: SNB-19 CNS
SW-620 colon = tested on: SW-620 colon
T-47D breast = tested on: T-47D breast
TK-10 renal = tested on: TK-10 renal

CCc1c(O)c(O)c(C(C)=O)c2c(O)c(-c3c(C)cc4c(CC)c(O)c(O)c(C(C)=O)c4c3O)c(C)cc12
TGI (ACHN renal): 28.8 µM
TGI (CCRF-CEM leukemia): 8.64 µM
TGI (COLO 205 colon): 21.4 µM
TGI (DMS 114 small cell lung): 18.4 µM
TGI (HCT-116 colon): 14.3 µM
TGI (HL-60(TB) leukemia): 14.9 µM
TGI (HOP-62 NSCLC): 27.4 µM
TGI (HOP-92 NSCLC): 10.4 µM
TGI (HT29 colon): 17.1 µM
TGI (K-562 leukemia): 11.3 µM
TGI (KM12 colon): 11.7 µM
TGI (KM20L2 colon): 17.6 µM
TGI (LXFL 529 NSCLC): 16.5 µM
TGI (M14 melanoma): 21.6 µM
TGI (M19-MEL melanoma): 30.8 µM
TGI (MALME-3M melanoma): 31.5 µM
TGI (NCI-H23 lung): 16.1 µM
TGI (NCI-H460 lung): 38.5 µM
TGI (NCI-H522 lung): 14.8 µM
TGI (OVCAR-3 ovarian): 18 µM
TGI (OVCAR-4 ovarian): 26.5 µM
TGI (OVCAR-5 ovarian): 32.9 µM
TGI (RPMI-8226 leukemia): 24.2 µM
TGI (SF-268 CNS): 37.1 µM
TGI (SF-295 CNS): 11 µM
TGI (SF-539 CNS): 22.4 µM
TGI (SK-MEL-2 melanoma): 23 µM
TGI (SK-MEL-28 melanoma): 27.2 µM
TGI (SNB-75 CNS): 30.7 µM
TGI (SNB-78 CNS): 12.1 µM
TGI (SR leukemia): > 100 µM
TGI (U251 CNS): 21.4 µM
TGI (UACC-257 melanoma): 24.3 µM
TGI (UACC-62 melanoma): 24.7 µM
TGI (UO-31 renal): 22.3 µM

O=[N+]([O-])c1ccccc1N=Nc1c(O)[nH]c2c(Cl)cc(Cl)cc12
TGI (786-0 renal): 39 µM
TGI (A498 renal): > 100 µM
TGI (A549 NSCLC): > 100 µM
TGI (ACHN renal): 46.8 µM
TGI (BT-549 breast): 30.5 µM
TGI (CAKI-1 renal): > 91.8 µM
TGI (CCRF-CEM leukemia): > 100 µM
TGI (COLO 205 colon): > 100 µM
TGI (DU-145 prostate): > 100 µM
TGI (EKVX NSCLC): 99.5 µM
TGI (HCC-2998 colon): > 100 µM
TGI (HCT-116 colon): > 100 µM
TGI (HCT-15 colon): > 100 µM
TGI (HL-60(TB) leukemia): > 93 µM
TGI (HOP-62 NSCLC): > 23.1 µM
TGI (HOP-92 NSCLC): > 68.2 µM
TGI (HS 578T breast): 53 µM
TGI (HT29 colon): > 100 µM
TGI (IGROV1 ovarian): > 100 µM
TGI (K-562 leukemia): > 100 µM
TGI (KM12 colon): > 100 µM
TGI (LOX IMVI melanoma): > 100 µM
TGI (M14 melanoma): > 100 µM
TGI (MALME-3M melanoma): > 95.7 µM
TGI (MCF7 breast): > 100 µM
TGI (MDA-MB-231 breast): > 69.3 µM
TGI (MDA-MB-435): > 100 µM
TGI (MDA-N): > 100 µM
TGI (MOLT-4 leukemia): > 87.8 µM
TGI (NCI-H226 lung): > 100 µM
TGI (NCI-H23 lung): > 100 µM
TGI (NCI-H460 lung): > 100 µM
TGI (NCI-H522 lung): > 100 µM
TGI (NCI/ADR-RES ovarian): > 100 µM
TGI (OVCAR-3 ovarian): > 74.7 µM
TGI (OVCAR-4 ovarian): > 100 µM
TGI (OVCAR-5 ovarian): > 100 µM
TGI (OVCAR-8 ovarian): > 100 µM
TGI (PC-3 prostate): > 100 µM
TGI (RPMI-8226 leukemia): > 100 µM
TGI (RXF 393 renal): > 59.8 µM
TGI (SF-268 CNS): > 100 µM
TGI (SF-295 CNS): > 61 µM
TGI (SF-539 CNS): 50.2 µM
TGI (SK-MEL-2 melanoma): > 74.3 µM
TGI (SK-MEL-28 melanoma): > 100 µM
TGI (SK-MEL-5 melanoma): > 100 µM
TGI (SK-OV-3 ovarian): > 100 µM
TGI (SN12C renal): > 100 µM
TGI (SNB-19 CNS): > 100 µM
TGI (SNB-75 CNS): 25.6 µM
TGI (SR leukemia): 22.6 µM
TGI (SW-620 colon): > 100 µM
TGI (T-47D breast): > 100 µM
TGI (TK-10 renal): 96.2 µM
TGI (U251 CNS): 27.7 µM
TGI (UACC-257 melanoma): > 100 µM
TGI (UACC-62 melanoma): > 100 µM
TGI (UO-31 renal): > 100 µM
